In paper PMC6332220, “Synthesis, Characterization and Biological Evaluation of Some Quinoxaline Derivatives: A Promising and Potent New Class of Antitumor and Antimicrobial Agents” (Molecules, 2015):
Values after ≈ are worked out from the molar mass of the structure shown.

Key:
Escherichia coli = assay: Disk diffusion, Escherichia coli; format: cell-based; details: Gram negative, 8.0 mm disks, 10 μL
Experimental: (§1) The disk diffusion method was used for determination of the antimicrobial activity using ampicillin, gentamicin and amphotericin B as reference drugs. The results were recorded for each compounds as the average diameter as inhibition zones (IZ) of bacterial or fungal growth around the discs in mm as shown in Table 2.
(§2) Antimicrobial activities were carried out against highly pathogenic strains; three strains of Gram positive bacteria (Bacillus subtilis, Staphylococcus aureus and Streptococcus faecalis), four strains of Gram negative bacteria (Escherichia coli, Neisseria gonorrhoeae, Pseudomonas aeruginosa and Salmonella typhimurium) and three fungi strains (Aspergillus flavus, Aspergillus fumigatus and Candida albicans) isolated from primary agar plates. Antimicrobial activity of the tested samples was determined using a modified Kriby-Bauer disk diffusion method. Briefly, 100 µL of the test bacteria/fungi were grown in 10 mL of fresh media until they reached a count approximately 10^8 cells/mL for bacteria or 10^5 cells/mL for fungi. 100 µL of microbial suspension was spread onto agar plates corresponding to the broth in which they were maintained. The inoculated plates of bacterial strains were incubated at 35–37 °C for 24–48 h, while the inoculated plates of fungal strains such as A. flavus and A. fumigatus were incubated at 25 °C for 48 h and yeast as C. albicans was incubated at 30 °C for 24–48 h.
(§3) The agar disk diffusion (qualitative) method was used in this investigation for determination of the preliminary antibacterial and antifungal activities. The agar used was Mueller-Hinton agar plates that are rigorously tested for composition and pH. Further the depth of the agar in the plate is a factor to be considered in the disk diffusion method.
(§4) Reference drugs: ampicillin was used as a standard antibacterial drug for Gram positive bacteria, gentamicin as a standard antibacterial drug for Gram negative bacteria and amphotericin B as antifungal standard drug.
(§5) Bacterial and fungal strains were spread onto the surface of the agar plates using sterile cotton swabs. For evaluation of antibacterial activities, blank paper disks (Schleicher & Schuell, Alicante, Spain) with a diameter of 8.0 mm were saturated with 10 μL of tested concentration of the stock solutions. Disks were dried and then placed onto inoculated agar plates. The plates of bacterial strains were reincubated at 35–37 °C for 24–48 h, while the plates of fungal strains such as A. flavus and A. fumigatus were reincubated at 25 °C for 48 h and yeast as C. albicans was reincubated at 30 °C for 24–48 h as mentioned above. […] For an accurate analysis, tests were run in triplicate for each strain to avoid any error as described in Table 2.

Staphylococcus aureus = assay: Disk diffusion, Staphylococcus aureus; format: cell-based; details: Gram positive, 8.0 mm disks, 10 μL
Experimental: as §1, §2, §3, §4, §5

Candida albicans = assay: Disk diffusion, Candida albicans; format: cell-based; details: Fungi, 8.0 mm disks, 10 μL
Experimental: as §1, §2, §3, §4, §5
(§6) Disk diffusion method for filamentous fungi testing by using approved standard method (M02-A11) developed by the CLSI for evaluating the susceptibilities of filamentous fungi to antifungal agents. Disk diffusion method for yeasts developed by using approved standard method (M44-A2) by the CLSI [44]. Agar-based methods such as disk diffusion can be good alternatives because they are simpler and faster than broth-based methods.

Bacillus subtilis = assay: Disk diffusion, Bacillus subtilis; format: cell-based; details: Gram positive, 8.0 mm disks, 10 μL
Experimental: as §1, §2, §3, §4, §5

Pseudomonas aeruginosa [1] = assay: MIC by broth dilution, Pseudomonas aeruginosa; format: cell-based; details: Pseudomonas aeruginosa, Gram negative, 0.98-125 µg/mL, read-out: Minimum Inhibitory Concentration (MIC) (µg/mL) Pseudomonas aeruginosa
Experimental: In this study, MIC (quantitative method) was used for evaluation of the antimicrobial activity of tested compounds. Screening was evaluated in vitro using the Broth dilution method according to CLSI [45]. All the bacteria were incubated and activated at 30 °C for 24 h inoculation into nutrient broth and the fungi were incubated in malt extract broth for 48 h. The compounds were dissolved in DMSO and then diluted using […] Mueller-Hinton broth. […] In each case triplicate tests were performed and the average was taken as the final reading. The tubes were then inoculated with the test organisms, grown in their suitable broth at 37 °C for 24 h for tested microorganisms (1 × 10^8 CFU/mL for bacteria and 1 × 10^6 CFU/mL of fungi), each 5 mL received 0.1 mL of the above inoculum and incubated at 37 °C for 24 h.

Salmonella typhimurium = assay: Disk diffusion, Salmonella typhimurium; format: cell-based; details: Gram negative, 8.0 mm disks, 10 μL
Experimental: as §1, §2, §3, §4, §5

[2] = test system: MCF-7 (breast adenocarcinoma); assay: In vitro cytotoxicity, SRB cell growth assay, MCF-7; details: Homo sapiens, MCF7, 48 h, read-out: IC50 (μg/mL) MCF-7
Experimental: The in vitro cytotoxic activity of the newly synthesized compounds against human breast cell line (MCF7), non-small cell lung cancer NCIH460, CNS cancer SF-268 and WI 38 (normal fibroblast cells) were evaluated using doxorubicin as the reference drug according to the method reported by Skehan et al..
The newly synthesized compounds were evaluated in vitro against three human cancer cell lines; which are MCF-7 (breast adenocarcinoma), NCI-H460 (non-small cell lung cancer) and SF-268 (CNS cancer), and WI 38 (normal fibroblast cells) were used in this study. MCF-7 was obtained from the European Collection of Cell Cultures (ECACC, Salisbury, UK) but NCI-H460, SF-268 and WI 38 were kindly provided by the National Cancer Institute (NCI, Cairo, Egypt). They grow as monolayer and routinely maintained RPMI-1640 medium supplemented with 5% heat inactivated fetal bovine serum (FBS), 2 mM glutamine and antibiotics (penicillin 100 U/mL, streptomycin 100 µg/mL), at 37 °C in a humidified atmosphere containing 5% CO2. Exponentially growing cells were obtained by plating 1.5 × 10^5 cells/mL for MCF-7 and SF-268, and 0.75 × 10^4 cells/mL for NCI-H460 followed by 24 h of incubation. The effect of the vehicle solvent (DMSO) on the growth of these cell lines was evaluated in all experiments by exposing untreated control cells to the maximum concentration (0.5%) of DMSO used in each assay.
The effect of compounds on the in vitro growth of human tumor cell lines were evaluated according to the procedure adopted by the National Cancer Institute ([…]) in the “In vitro Anticancer Drug Discovery Screen” that uses the protein-binding dye sulforhodamine B (SRB) to assess cell growth. In the assay protocol, all cells were incubated at 37 °C under humidified atmosphere containing 5% CO2. Briefly, exponentially cells growing in 96-well plates were then exposed for 48 h to five serial concentrations of each compound, starting from a maximum concentration of 150 μg/mL. Following this exposure period adherent cells were fixed, washed and stained. The bound stain was solubilized and the absorbance was measured at 492 nm in a plate reader (Bio-Tek Instruments Inc., Power wave XS, Winston, NC, USA). For each test compound and cell line, a dose response curve was obtained and the inhibitory concentration of 50% (IC50), corresponding to the concentration of the compounds that inhibited 50% of the net cell growth was calculated as described elsewhere. Doxorubicin was used as a positive control and tested in the same manner.

Aspergillus fumigatus = assay: Disk diffusion, Aspergillus fumigatus; format: cell-based; details: Fungi, 8.0 mm disks, 10 μL
Experimental: as §1, §2, §3, §4, §5, §6

Streptococcus faecalis = assay: Disk diffusion, Streptococcus faecalis; format: cell-based; details: Gram positive, 8.0 mm disks, 10 μL
Experimental: as §1, §2, §3, §4, §5

Pseudomonas aeruginosa [3] = assay: Disk diffusion, Pseudomonas aeruginosa; format: cell-based; details: Gram negative, 8.0 mm disks, 10 μL
Experimental: as §1, §2, §3, §4, §5

MIC (Pseudomonas aeruginosa [1]) [µg/mL]	melting point [°C]	SMILES	Inhibition Zone Diameter (IZ) (mm) Escherichia coli (Escherichia coli) [mm]	Inhibition Zone Diameter (IZ) (mm) Staphylococcus aureus (Staphylococcus aureus) [mm]	Inhibition Zone Diameter (IZ) (mm) Candida albicans (Candida albicans)	Inhibition Zone Diameter (IZ) (mm) Bacillus subtilis (Bacillus subtilis) [mm]	Inhibition Zone Diameter (IZ) (mm) Salmonella typhimurium (Salmonella typhimurium) [mm]	IC50 [2] [µg/mL]	Inhibition Zone Diameter (IZ) (mm) Aspergillus fumigatus (Aspergillus fumigatus)	Inhibition Zone Diameter (IZ) (mm) Streptococcus faecalis (Streptococcus faecalis) [mm]	Inhibition Zone Diameter (IZ) (mm) Pseudomonas aeruginosa (Pseudomonas aeruginosa [3]) [mm]
125 (≈ 429 µM)		Brc1ccc2c(c1)n1nnnc1c1nnnn21 [Compound 11, 9-Bromoditetrazolo[1,5-a:5′,1′-c]quinoxaline]	15	17	R (R (IZ = 0 mm))	19	18	1.18 ± 1.03 (≈ 4.05 µM)	R (R (IZ = 0 mm))	15	14
125 (≈ 375 µM)	164 to 166	Cc1cc(C)n(-c2nc3cc(Br)ccc3nc2NN)n1 [Compound 14, 6-Bromo-3-(3,5-dimethyl-1H-pyrazol-1-yl)-2-hydrazinyl quinoxaline]	12	12	R (R (IZ = 0 mm))	12	10	30.3 ± 3.86 (≈ 91 µM)	R (R (IZ = 0 mm))	12	12
> 125	144 to 146	Brc1ccc2nc(N3CCOCC3)c3nnnn3c2c1 [Compound 5b, 8-Bromo-4-(morpholin-4-yl)tetrazolo[1,5-a]quinoxaline]	11	17	9 mm	17	13	0.02 ± 0.002 (≈ 0.0597 µM)	12 mm	11	10
125 (≈ 375 µM)	122 to 123	Brc1ccc2nc(N3CCCCC3)c3nnnn3c2c1 [Compound 5a, 8-Bromo-4-(piperidin-1-yl)tetrazolo[1,5-a]quinoxaline]	13	11	12 mm	13	14	0.01 ± 0.001 (≈ 0.03 µM)	12 mm	9	11
